From US8575091B1, “Amylin analogues and pharmaceutical compositions thereof” (Novo Nordisk A/S, priority 2012, dated 2013) come the findings set out here.

For test [1], the target named is T1, human amylin receptor (amylin 3(a) receptor: human calcitonin receptor + RAMP-3) (Homo sapiens, UniProt O60896+P30988).
T1 construct: expressed in transfected cells
T1 sequence (P30988 25-474): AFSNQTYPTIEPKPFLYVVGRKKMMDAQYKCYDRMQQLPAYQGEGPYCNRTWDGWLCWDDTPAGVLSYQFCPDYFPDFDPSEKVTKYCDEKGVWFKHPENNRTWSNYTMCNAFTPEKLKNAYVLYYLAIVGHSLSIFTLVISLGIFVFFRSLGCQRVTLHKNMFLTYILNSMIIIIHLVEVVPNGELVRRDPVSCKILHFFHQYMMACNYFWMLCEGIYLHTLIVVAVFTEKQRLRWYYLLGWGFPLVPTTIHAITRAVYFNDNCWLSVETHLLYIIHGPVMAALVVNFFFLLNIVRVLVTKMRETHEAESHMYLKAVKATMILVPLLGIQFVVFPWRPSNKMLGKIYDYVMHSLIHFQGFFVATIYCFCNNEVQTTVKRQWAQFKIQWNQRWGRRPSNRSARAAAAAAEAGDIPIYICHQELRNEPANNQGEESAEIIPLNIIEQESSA
T1 sequence (O60896 24-148 partner): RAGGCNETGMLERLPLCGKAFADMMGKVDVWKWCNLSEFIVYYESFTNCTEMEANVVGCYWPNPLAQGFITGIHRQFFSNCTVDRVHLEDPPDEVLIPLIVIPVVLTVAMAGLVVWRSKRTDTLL
Kind of test: Assay (II)a functional assay, human amylin receptor (CRE luciferase, BHK cells). In kind it is cell-based. To be noted: for EC50: read-out: hAmylin-R funct. EC50.

Test [2] addresses T2, human calcitonin receptor (Homo sapiens, UniProt P30988).
T2 construct: expressed in transfected cells
T2 sequence (P30988 25-474): T1 sequence (P30988 25-474)
In words: Assay (II)a functional assay, human calcitonin receptor (CRE luciferase, BHK cells).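 Note: luminescence from a CRE-driven luciferase reporter, read by single photon counting after cells were exposed to test samples for 3 h at 37 °C under 5% CO2.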 It is filed as cell-based. The note with it: read-out: hCTR funct. EC50.

In the next test the target is T3, human amylin receptor (Homo sapiens, UniProt O60896+P30988).
T3 construct: expressed in transfected cells
T3 sequence (P30988 25-474): T1 sequence (P30988 25-474)
T3 sequence (O60896 24-148 partner): T1 sequence (O60896 24-148 partner)
In words: Assay (V) binding to the human amylin receptor (SPA, 125I-rat amylin). The note with it: for IC50: human amylin receptor membranes, SPA, read-out: hAmylin-R bind IC50. Summed up:
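SPA competition binding on membranes from Amylin 3(a)/CRE-luc cells, 35 ng/μL membranes with 0.05 mg/well beads. Buffer 50 mM Hepes pH 7.4, 1 mM CaCl2, 5 mM MgCl2, 0.1% OA, 0.02% Tween20. IC50 from one-site competition fit as affinity measure.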

The target in test [3] is T2, human calcitonin receptor. In words: Assay (VII) binding to the human calcitonin receptor (SPA, 125I-Calcitonin).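 Note: cell membranes coupled to SPA beads, competitive displacement read by scintillation counting, IC50 derived from a one-site competition fit as a measure of receptor affinity.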 To be noted: read-out: hCTR bind IC50.
[4] abbreviates: Table 6, human functional selectivity (hCTR EC50 / hAmylin-R EC50).
The mark [5] stands for this setting: Table 6a, human functional selectivity (hCTR EC50 / hAmylin-R EC50), at least 5.
Setting [6] is: functional assay, human amylin receptor.

Where two headings read alike, the source gives them in different places. Numbered stars: 1 amine (or outer) side, 2 acyl side, 3 side chain; on linkers, the order of the positions; unused ones are H or OH. Bridge positions count the residues as written; N and C are the ends. Side chains are listed from the residue outwards. Peptide text beside a SMILES is read from it. * marks the point of attachment. C20 diacid = O=C(O)CCCCCCCCCCCCCCCCCCC(=O)*; γGlu = O=C(O)[C@H](CCC(=O)[*:2])N[*:1]

As a reminder, the EC50 is the concentration needed to bring the measured effect to its halfway point. The term IC50 denotes the concentration needed to halve the response being measured. Regarding `CC[C@H](C)[C@H](NC(=O)[C@H](C)NC(=O)CNC(=O)[C@H](Cc1ccccc1)NC(=O)[C@H](CC(N)=O)NC(=O)[C@@H]1CCCN1C(=O)[C@H](CO)NC(=O)[C@H](CO)NC(=O)[C@H](Cc1c[nH]cn1)NC(=O)[C@H](CCCNC(=N)N)NC(=O)[C@H](CC(C)C)NC(=O)[C@H](Cc1ccccc1)NC(=O)[C@H](Cc1c[nH]cn1)NC(=O)[C@H](C)NC(=O)[C@H](CC(C)C)NC(=O)[C@H](CCCNC(=N)N)NC(=O)[C@H](CCC(N)=O)NC(=O)[C@@H](NC(=O)[C@H](C)NC(=O)[C@@H]1CSSC[C@H](NC(=O)[C@H](CCCNC(=N)N)NC(=O)CNC(=O)CC[C@H](NC(=O)CCCCCCCCCCCCCCCCCCC(=O)O)C(=O)O)C(=O)N[C@@H](CC(N)=O)C(=O)N[C@@H]([C@@H](C)O)C(=O)N[C@@H](C)C(=O)N[C@@H]([C@@H](C)O)C(=O)N1)[C@@H](C)O)C(=O)N1CCC[C@H]1C(=O)N[C@@H](CO)C(=O)N[C@@H](CO)C(=O)N[C@H](C(=O)N[C@@H](CC(N)=O)C(=O)N[C@H](C(=O)NCC(=O)N[C@@H](CO)C(=O)N[C@@H](CC(N)=O)C(=O)N[C@H](C(=O)N[C@@H](Cc1ccc(O)cc1)C(N)=O)[C@@H](C)O)C(C)C)[C@@H](C)O` [Example 99] ({C20 diacid-γGlu}-GRCNTATCATQRLAHFLRHSSPNFGAIPSSTNVGSNTY-NH2; disulfide 3-8), the “Ratio hCT/hAmylin funct.” value in test [1] (setting [4]) is on record as 10.0; in test [1] (setting [5]) it was 10.0; in test [1] (Table 6j, hCTR funct. EC50 / hAmylin-R funct. EC50), 10.0; in test [1] (Table 6k, hCTR funct. EC50 / hAmylin-R funct. EC50) it was 10.0. Besides, the EC50 turned out to be 0.082 nM in test [1] (setting [6]) and 0.818 nM in test [2]. Further, the IC50 at human amylin receptor stood at 0.348 nM; in test [3], 35 nM.
As for `CC[C@H](C)[C@H](NC(=O)[C@H](C)NC(=O)CNC(=O)[C@H](Cc1ccccc1)NC(=O)[C@H](CC(N)=O)NC(=O)[C@@H]1CCCN1C(=O)[C@H](CO)NC(=O)[C@H](CO)NC(=O)[C@H](Cc1c[nH]cn1)NC(=O)[C@H](CCCNC(=N)N)NC(=O)[C@H](CC(C)C)NC(=O)[C@H](Cc1ccccc1)NC(=O)[C@H](Cc1c[nH]cn1)NC(=O)[C@H](C)NC(=O)[C@H](CC(C)C)NC(=O)[C@H](CCCNC(=N)N)NC(=O)[C@H](CCC(N)=O)NC(=O)[C@@H](NC(=O)[C@H](C)NC(=O)[C@@H]1CSSC[C@H](NC(=O)[C@H](CCCCN)NC(=O)CC[C@H](NC(=O)CCCCCCCCCCCCCCCCCCC(=O)O)C(=O)O)C(=O)N[C@@H](CC(N)=O)C(=O)N[C@@H]([C@@H](C)O)C(=O)N[C@@H](C)C(=O)N[C@@H]([C@@H](C)O)C(=O)N1)[C@@H](C)O)C(=O)N1CCC[C@H]1C(=O)N[C@@H](CO)C(=O)N[C@@H](CO)C(=O)N[C@H](C(=O)N[C@@H](CC(N)=O)C(=O)N[C@H](C(=O)NCC(=O)N[C@@H](CO)C(=O)N[C@@H](CCC(=O)O)C(=O)N[C@H](C(=O)N[C@@H](Cc1ccc(O)cc1)C(N)=O)[C@@H](C)O)C(C)C)[C@@H](C)O` [Example 30] ({C20 diacid-γGlu}-KCNTATCATQRLAHFLRHSSPNFGAIPSSTNVGSETY-NH2; disulfide 2-7), the EC50 in test [1] (setting [6]) amounted to 0.134 nM; in test [2], 1.68 nM. Further, the IC50 was determined as 0.919 nM at human amylin receptor and 21.7 nM in test [3].
Take `CC(C)C[C@H](NC(=O)[C@H](CCCNC(=N)N)NC(=O)[C@H](CCC(N)=O)NC(=O)[C@@H](NC(=O)[C@H](C)NC(=O)[C@@H]1CSSC[C@H](NC(=O)[C@@H](N)CCCCNC(=O)CC[C@H](NC(=O)CC[C@H](NC(=O)CCCCCCCCCCCCCCCCCCC(=O)O)C(=O)O)C(=O)O)C(=O)N[C@@H](CC(N)=O)C(=O)N[C@@H]([C@@H](C)O)C(=O)N[C@@H](C)C(=O)N[C@@H]([C@@H](C)O)C(=O)N1)[C@@H](C)O)C(=O)N[C@@H](C)C(=O)N[C@@H](CC(=O)O)C(=O)N[C@@H](Cc1ccccc1)C(=O)N[C@@H](CC(C)C)C(=O)N[C@@H](CCCNC(=N)N)C(=O)N[C@@H](Cc1c[nH]cn1)C(=O)N[C@@H](CO)C(=O)N[C@@H](CO)C(=O)N[C@@H](CC(N)=O)C(=O)N1CCC[C@H]1C(=O)N[C@@H](Cc1ccccc1)C(=O)NCC(=O)N[C@@H](C)C(=O)N1CCC[C@H]1C(=O)N[C@@H](CC(C)C)C(=O)N[C@@H](CO)C(=O)N[C@@H](CO)C(=O)N[C@H](C(=O)N[C@@H](CC(N)=O)C(=O)N[C@H](C(=O)NCC(=O)N[C@@H](CO)C(=O)N[C@@H](CC(=O)O)C(=O)N[C@H](C(=O)N[C@@H](Cc1ccc(O)cc1)C(N)=O)[C@@H](C)O)C(C)C)[C@@H](C)O` [Example 3] (H-K([γGlu-γGlu-C20 diacid])CNTATCATQRLADFLRHSSNPFGAPLSSTNVGSDTY-NH2; disulfide 2-7): the “Ratio hCT/hAmylin funct.” value in test [1] (setting [4]) and in test [1] (setting [5]) was 6.7 throughout. Besides, the IC50 at human amylin receptor came out at 1.13 nM; in test [3] it was 19.5 nM.
In the case of `CC[C@H](C)[C@H](NC(=O)[C@H](C)NC(=O)CNC(=O)[C@H](Cc1ccccc1)NC(=O)[C@H](CC(N)=O)NC(=O)[C@@H]1CCCN1C(=O)[C@H](CO)NC(=O)[C@H](CO)NC(=O)[C@H](Cc1c[nH]cn1)NC(=O)[C@H](CCCNC(=N)N)NC(=O)[C@H](CC(C)C)NC(=O)[C@H](Cc1ccccc1)NC(=O)[C@H](Cc1c[nH]cn1)NC(=O)[C@H](C)NC(=O)[C@H](CC(C)C)NC(=O)[C@H](CCCNC(=N)N)NC(=O)[C@H](CCC(N)=O)NC(=O)[C@@H](NC(=O)[C@H](C)NC(=O)[C@@H]1CSSC[C@H](NC(=O)[C@@H](N)CCCCNC(=O)COCCOCCNC(=O)CCCCCCCCCCCCCCCCCCC(=O)O)C(=O)N[C@@H](CC(N)=O)C(=O)N[C@@H]([C@@H](C)O)C(=O)N[C@@H](C)C(=O)N[C@@H]([C@@H](C)O)C(=O)N1)[C@@H](C)O)C(=O)N1CCC[C@H]1C(=O)N[C@@H](CO)C(=O)N[C@@H](CO)C(=O)N[C@H](C(=O)N[C@@H](CC(N)=O)C(=O)N[C@H](C(=O)NCC(=O)N[C@@H](CO)C(=O)N[C@@H](CC(N)=O)C(=O)N[C@H](C(=O)N[C@@H](Cc1ccc(O)cc1)C(N)=O)[C@@H](C)O)C(C)C)[C@@H](C)O` [Example 90], the EC50 in test [1] (Table 6j, human amylin receptor functional) was 0.033 nM. For the same compound, the IC50 at human amylin receptor worked out at 0.061 nM; in test [3], 2.57 nM.
As for `CC[C@H](C)[C@H](NC(=O)[C@H](C)NC(=O)CNC(=O)[C@H](Cc1ccccc1)NC(=O)[C@H](CC(N)=O)NC(=O)[C@@H]1CCCN1C(=O)[C@H](CO)NC(=O)[C@H](CO)NC(=O)[C@H](Cc1c[nH]cn1)NC(=O)[C@H](CCCNC(=N)N)NC(=O)[C@H](CC(C)C)NC(=O)[C@H](Cc1ccccc1)NC(=O)[C@H](CCC(=O)O)NC(=O)[C@H](C)NC(=O)[C@H](CC(C)C)NC(=O)[C@H](CCCNC(=N)N)NC(=O)[C@H](CCC(N)=O)NC(=O)[C@@H](NC(=O)[C@H](C)NC(=O)[C@@H]1CSSC[C@H](NC(=O)[C@H](CCCCN)NC(=O)CC[C@H](NC(=O)CCCCCCCCCCCCCCCCCCC(=O)O)C(=O)O)C(=O)N[C@@H](CC(N)=O)C(=O)N[C@@H]([C@@H](C)O)C(=O)N[C@@H](C)C(=O)N[C@@H]([C@@H](C)O)C(=O)N1)[C@@H](C)O)C(=O)N1CCC[C@H]1C(=O)N[C@@H](CO)C(=O)N[C@@H](CO)C(=O)N[C@H](C(=O)N[C@@H](CC(N)=O)C(=O)N[C@H](C(=O)NCC(=O)N[C@@H](CO)C(=O)N[C@@H](Cc1c[nH]cn1)C(=O)N[C@H](C(=O)N[C@@H](Cc1ccc(O)cc1)C(N)=O)[C@@H](C)O)C(C)C)[C@@H](C)O` [Example 18] ({C20 diacid-γGlu}-KCNTATCATQRLAEFLRHSSPNFGAIPSSTNVGSHTY-NH2; disulfide 2-7), the “Ratio hCT/hAmylin funct.” value in test [1] (setting [4]) is given as 4.8. Besides, at human amylin receptor (human binding ratio, included for comparison), the “Ratio hCT/hAmylin binding” value was 9.2.
